The results in this text go back to PMC4574779, “Selective Production of 9R-Hydroxy-10E,12Z,15Z-Octadecatrienoic Acid from α-Linolenic Acid in Perilla Seed Oil Hydrolyzate by a Lipoxygenase from Nostoc Sp. SAG 25.82” (PLoS ONE, 2015).

This test addresses T1, 9R-LOX (9R-lipoxygenase) from Nostoc sp. SAG 25.82 (Nostoc sp. PCC 7120 = FACHB-418, UniProt Q8YK97).
T1 construct: gene all8020; 9R-lox/pET-15b, His-tagged, E. coli ER2566, His-Trap purified
T1 sequence (Q8YK97 318-773 limits assumed): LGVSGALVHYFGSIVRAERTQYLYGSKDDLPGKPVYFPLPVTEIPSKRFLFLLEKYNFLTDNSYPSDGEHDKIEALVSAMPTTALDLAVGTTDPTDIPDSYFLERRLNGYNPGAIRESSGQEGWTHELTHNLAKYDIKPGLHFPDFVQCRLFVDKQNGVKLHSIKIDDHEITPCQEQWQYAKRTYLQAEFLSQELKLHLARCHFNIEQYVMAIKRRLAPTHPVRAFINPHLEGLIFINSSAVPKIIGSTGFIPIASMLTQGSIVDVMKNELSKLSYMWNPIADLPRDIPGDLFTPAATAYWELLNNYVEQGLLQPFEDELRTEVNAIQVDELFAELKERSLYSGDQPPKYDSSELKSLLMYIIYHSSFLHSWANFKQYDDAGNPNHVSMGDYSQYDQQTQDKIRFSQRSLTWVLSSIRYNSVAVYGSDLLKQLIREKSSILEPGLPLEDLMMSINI
The test can be described thus: oxygen uptake (Clark-type electrode), nonlinear Michaelis-Menten fit. The test is classed as biochemical. Conditions: O2 co-substrate; 50 mM Tris-HCl pH 8.5; 25°C in methods (results text: 15°C, 5% acetone, 0.2% Tween 80). An excerpt: oxygen uptake (Clark-type electrode), nonlinear Michaelis-Menten fit on 9R-LOX (9R-lipoxygenase) from Nostoc sp. SAG 25.82
As usually defined, the Km is the concentration of substrate that gives half-maximal velocity. As for `CC/C=C\C/C=C\C/C=C\CCCCCCCC(=O)O` [ALA, α-Linolenic acid], the Km was 54 ± 1.3 µM.
`CCCCC/C=C\C/C=C\C/C=C\CCCCC(=O)O` [GLA, γ-Linolenic acid]: the Km came out at 54 ± 0.8 µM.
As for `CCCCC/C=C\C/C=C\CCCCCCCC(=O)O` [LA, Linoleic acid], the Km came to 404 ± 30 µM.
